What was measured:
[1] = tested on: RAFLS p-gp over expression; assay: MTT cytotoxicity assay, RAFLS overexpressed with P-gp; conditions: RAFLS p-gp over expression vs RAFLS
Method: (§5) All test compounds were dissolved in DMSO at final concentrations of 50 mmol/L and stored at −20° C. before use. Cytotoxicity was assessed using the 3-(4, 5-dimethylthiazol-2-yl)-2, 5-diphenyltetrazolium bromide (MTT) (5.0 mg/ml) assay. Briefly, 4×10^3 RAFLS cells overexpressed with P-gp were seeded per well in 96-well plates before drug treatment. […] Cells without drug treatment were used as control. Subsequently, MTT (10 μL) was added to each well and incubated at 37° C. for 4 hours followed by the addition of 100 μL solubilization buffer (10% SDS in 0.01 mol/L HCl) and overnight incubation. A570 nm was determined from each well on the next day. The percentage of cell viability was calculated using the following formula: Cell viability (%)=Atreated/Acontrol×100. Data were obtained from triplication independent experiments.

[2] = in vitro; conditions: human
Method: as §5

[3] = tested on: adjuvant-induced arthritis (AIA) rat model; assay: Adjuvant-induced arthritis (AIA) rat model; conditions: AIA rats; for microCT of hind joints: swollen joints and cartilage destruction: left hind paw
[4] = MTT cytotoxicity assay, RAFLS; format: cell-based; conditions: human
From the text: Data were obtained from triplication independent experiments.

[5] = tested on: RAFLS; assay: Annexin V flow cytometry cell death in RAFLS; format: cell-based; conditions: 24 h; for celastrol-mediated autophagic cell death with inhibitor: 2 μM celastrol with 5 mM 3-MA or 5 μM BAPTA/AM
Method: (§1) Annexin V flow cytometry analysis was applied. Cell death and viability are measured using an Annexin V staining kit (BD Biosciences, San Jose, Calif., USA). Briefly, RAFLS are treated with 0-2 μM celastrol for 24 h. Cells are then harvested and analysed by multiparametric flow cytometry using FITC-Annexin V and Propidium iodide staining (BD Biosciences, San Jose, Calif., USA) according to the manufacturer's instructions. Flow cytometry is then carried out using a FACSCalibur flow cytometer (BD Biosciences, San Jose, Calif., USA). Data acquisition and analysis is performed with CellQuest (BD Biosciences, San Jose, Calif., USA). Data are obtained from three independent experiments.
as §1, with “performed.” for “applied.”, “1 or 2” for “0-2”, “celastrol in the presence or absence of autophagic inhibitor, 3-MA or calcium chelator, BAPTA/AM (BM)” for “celastrol”

[6] = tested on: RASFs; assay: Cytosolic Ca2+ dynamic, FLIPR Calcium 6 Assay Kit in RASFs; format: cell-based, human; conditions: for celastrol-induced calcium dynamic change under co-/pre-treatment: 1 μM celastrol with 5 μM Compound C or 1 μM thapsigargin; for calcium dynamic change: 1 μM, compound alone
Method: Intracellular cytosolic Ca^2+ dynamic was measured using the FLIPR Calcium 6 Assay Kit (Molecular Devices) according to the manufacturer's instructions. In brief, RASFs were plated at a density of 10000 cells per well in black wall/clear bottom 96-multiwell plates from Costar (Tewksbury, Mass., USA) and cultured for 24 h before treatment. After that, calcium 6 reagent was added directly to cells, and cells were incubated for an additional 2 h at 37° C. and 5% CO2. Indicated concentrations of celastrol or thapsigargin were then added to the wells and immediately subjected to data acquisition on the SpectraMax Paradigm Multi-Mode Microplate Reader (Molecular Devices) at room temperature using a 1-s reading interval throughout the experiments.

[7] = tested on: RASFs; assay: LC3 conversion Western blot in RASFs; format: cell-based, human; conditions: 2 μM celastrol, 10 μM BAPTA/AM
Method: In a detection of autophagic marker protein LC3 conversion, after celastrol treatments with or without the calcium chelator, BAPTA/AM (BM), RASFs were harvested and lysed in RIPA buffer (Cell Signaling Technologies Inc. (Beverly, Mass.). The cell lysates were then resolved by SDS-PAGE. After electrophoresis, the proteins from SDS-PAGE were transferred to nitrocellulose membrane which was then blocked with 5% non-fat dried milk for 60 minutes. The membrane was then incubated with LC3 primary antibodies (1:1000) in TBST overnight at 4° C. After that, the membrane was further incubated with HRP-conjugated secondary antibodies for 60 minutes. Finally, protein bands were visualized by using the ECL Western Blotting Detection Reagents (Invitrogen, Paisley, Scotland, UK).

[8] = tested on: RAFLS; assay: Endogenous LC3-II puncta (autophagy) in RAFLS; format: cell-based, human; conditions: 24 h
Method: RAFLS were treated with DMSO as a control group or celastrol at a concentration of 0.25, 0.5, 1 or 2 μM for 24 h.
(§2) Data from the bar chart represented the mean values±S.D. of three independent experiments; error bars, S.D. ***, P<0.001.
(§3) In order to determine endogenous expression of LC3-II, RASFs or RAFLS treated with indicated time and concentrations of celastrol (Cel) were fixed and visualised by fluorescence microscopy after staining with an LC3-II antibody followed by TRITC-conjugated anti-mouse secondary antibody.
To determine the endogenous expression of LC3-II, RAFLS were treated with indicated concentrations of celastrol in the presence or absence of BAPTA/AM (BM) for 24 h. The cells were then fixed and visualised by fluorescence microscopy after staining with an LC3-II antibody followed by TRITC-conjugated anti-mouse secondary antibody.

[9] = tested on: RASFs; assay: Endogenous LC3-II puncta (autophagy) in RASFs; format: cell-based, human; conditions: 1 μM, 10-240 min
Method: RASFs were treated with DMSO as a control group or 1 μM celastrol for 10, 30, 60 or 240 min. The cells were then fixed and visualized for endogenous LC3-II expression by fluorescence microscopy using LC3-II antibody plus TRITC-conjugated anti-mouse secondary antibody.
as §2, §3

[10] = tested on: RAFLS p53 R213*; assay: MTT cytotoxicity assay, RAFLS transfected with p53 mutant R213*; format: cell-based, human
Method: (§4) Cytotoxicity Assays were performed. […] Data were obtained from triplication independent experiments.

[11] = tested on: RAFLS p53 WT; assay: MTT cytotoxicity assay, RAFLS Ctrl p53 WT; format: cell-based, human
Method: as §4

[12] = tested on: P-gp; assay: Rho123 exclusion assay in P-gp overexpressing RAFLS; format: cell-based, human; conditions: relatively low doses of celastrol
Method: At the end of the incubation, the accumulation of Rho123 was stopped by washing the cells five times with ice-cold PBS. After cell centrifugation, cell pellets were resuspended in 400 μL PBS. […] All data acquisition and analyses were performed with CellQuest (BD Biosciences, San Jose, Calif., USA) in triplicate in three independent experiments, and the results were shown as the mean of fluorescence intensity.

[13] = tested on: P-gp-over-expressing RAFLS; assay: Annexin V flow cytometry, celastrol with methotrexate in RAFLS; format: cell-based, human; conditions: celastrol 0.1-0.2 μM with 450 μM MTX, 24 h
Method: Celastrol-induced cell death was measured by flow cytometry analysis after annexin V staining.
as §1, with “performed.” for “applied.”, “Briefly, RAFLS are treated with 0-2 μM celastrol for 24 h.” left out

[14] = target: T1, P-gp ATPase (Homo sapiens, UniProt P08183); assay: Pgp-Glo assay of P-gp ATPase activity; format: biochemical; conditions: celastrol 0.5, 1, 2 μM with 200 μM verapamil and ATP, 1 hour, 37° C.
T1 construct: purchased Promega, Madison, Wis
Method: The luminescence was then measured by P-gp Glo™ Assay System. Change in luminescence (RLU) represented the activity of P-gp, whereas the activity shown in the control group indicated the basal P-gp ATPase activity.
The luminescence of the sample reflects the ATP level in the sample, which is negatively correlated with the activity of P-gp ATPase and was recorded using the SpectraMax Paradigm Multi-Mode Microplate Reader (Molecular Devices). DMSO-treated activities are expressed as the percentage of basal activity. By comparing basal activity to test compound-treated activities, the compounds can be ranked as stimulating, inhibiting, or having no effect on basal P-gp ATPase activity.

[15] = tested on: RAFLS p53 N239S; assay: MTT cytotoxicity assay, RAFLS transfected with p53 mutant N239S; format: cell-based, human
Method: as §4

[16] = tested on: RAFLS; assay: Cytosolic calcium level by Fluo-3 flow cytometry in RAFLS; format: cell-based, human; conditions: 1 μM 0-24 h, 0.1-2 μM 4 h
Method: Flow cytometry analysis was performed to determine the cytosolic calcium level. Intracellular free calcium was measured by a fluorescent dye, Fluo-3. Briefly, RAFLS were washed twice with DMEM media after Celastrol treatment (1 μM) for 4 h. Then cell suspensions were incubated with 5 μM Fluo-3 at 37° C. for 30 min. Then the cells were washed twice with HBSS. After re-suspended cell samples were subjected to FACS analysis. At least 10,000 events were analyzed.

[17] = RAFLS cells overexpressing P-gp
[18] = Homo sapiens, RA-FLS, 72 h, read-out: mean IC50
[19] = celastrol 1 and 2 mg/kg i.p., 36 days, vs vehicle-treated

T1 sequence (P08183 whole entry): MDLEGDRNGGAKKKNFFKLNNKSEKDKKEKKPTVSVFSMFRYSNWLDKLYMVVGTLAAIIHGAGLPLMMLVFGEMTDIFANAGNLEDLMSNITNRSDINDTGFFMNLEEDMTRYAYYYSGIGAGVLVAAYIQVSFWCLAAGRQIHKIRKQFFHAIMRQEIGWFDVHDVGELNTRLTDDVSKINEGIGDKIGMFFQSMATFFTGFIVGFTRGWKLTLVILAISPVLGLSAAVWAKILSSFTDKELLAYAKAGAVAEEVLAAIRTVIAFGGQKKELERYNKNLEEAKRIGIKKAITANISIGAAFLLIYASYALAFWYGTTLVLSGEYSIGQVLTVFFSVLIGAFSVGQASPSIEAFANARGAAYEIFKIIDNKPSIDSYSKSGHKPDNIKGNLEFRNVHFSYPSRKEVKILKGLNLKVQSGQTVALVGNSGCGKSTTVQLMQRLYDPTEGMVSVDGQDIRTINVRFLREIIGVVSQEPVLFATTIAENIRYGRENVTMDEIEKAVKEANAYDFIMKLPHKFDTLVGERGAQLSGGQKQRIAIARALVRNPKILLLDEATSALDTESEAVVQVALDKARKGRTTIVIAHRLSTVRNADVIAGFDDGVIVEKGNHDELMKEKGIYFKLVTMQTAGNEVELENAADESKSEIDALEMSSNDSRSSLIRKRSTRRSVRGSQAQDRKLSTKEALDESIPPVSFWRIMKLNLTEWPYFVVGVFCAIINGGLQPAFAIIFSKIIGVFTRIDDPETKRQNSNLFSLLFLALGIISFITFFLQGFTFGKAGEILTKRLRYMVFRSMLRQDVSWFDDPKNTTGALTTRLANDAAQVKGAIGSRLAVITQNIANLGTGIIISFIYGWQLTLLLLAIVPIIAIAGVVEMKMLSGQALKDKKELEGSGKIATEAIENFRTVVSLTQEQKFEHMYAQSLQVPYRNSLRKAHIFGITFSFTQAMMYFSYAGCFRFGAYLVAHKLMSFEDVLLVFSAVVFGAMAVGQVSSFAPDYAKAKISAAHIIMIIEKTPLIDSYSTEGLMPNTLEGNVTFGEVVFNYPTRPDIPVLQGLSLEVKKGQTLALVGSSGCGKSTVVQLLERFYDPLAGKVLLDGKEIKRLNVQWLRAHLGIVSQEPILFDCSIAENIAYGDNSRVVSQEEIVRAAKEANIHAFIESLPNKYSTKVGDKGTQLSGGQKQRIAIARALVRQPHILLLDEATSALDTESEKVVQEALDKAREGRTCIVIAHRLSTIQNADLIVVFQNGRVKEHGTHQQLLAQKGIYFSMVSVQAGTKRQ

CN(Cc1cnc2nc(N)nc(N)c2n1)c1ccc(C(=O)N[C@@H](CCC(=O)O)C(=O)O)cc1 [Methotrexate, methotrexate]
Resistant Factor [1]: 3.83 | IC50 at 72 h [2, 17]: 838 µM | erythrocyte sedimentation rate (ESR) [3]: down-regulated | microCT of hind joints: swollen joints and cartilage destruction [3]: markedly improved | IC50 at 72 h ([4]; RAFLS cells): 219 µM

C[C@]12C=CC(=O)C=C1CC[C@@H]1[C@@H]2[C@@H](O)C[C@@]2(C)[C@H]1CC[C@]2(O)C(=O)CO [Prednisolone, prednisolone]
IC50 at 72 h [2, 17]: 216 µM | IC50 at 72 h ([4]; RAFLS cells): 123 µM

C[C@@H]1C[C@H]2[C@@H]3CCC4=CC(=O)C=C[C@]4(C)[C@@]3(F)[C@@H](O)C[C@]2(C)[C@@]1(O)C(=O)CO [Dexamethasone, dexamethasone]
IC50 at 72 h [2, 17]: > 2000 µM | IC50 at 72 h ([4]; RAFLS cells): 600 µM

Cn1cnc(N)c2ncnc1-2 [3-MA, 3-methyladenine]
celastrol-mediated autophagic cell death with inhibitor [5]: completely abolished

C/C=C(/C)C(=O)O[C@H]1C(C)=C2[C@H]([C@@H]1OC(=O)CCCCCCC)[C@@](C)(OC(C)=O)C[C@H](OC(=O)CCC)[C@@]1(O)[C@H]2OC(=O)[C@@]1(C)O [thapsigargin]
celastrol-induced calcium dynamic change under co-/pre-treatment [6]: extremely low response in calcium mobilization upon celastrol treatment | calcium dynamic change [6]: significantly induced the calcium dynamic change

CC(=O)OCOC(=O)CN(CC(=O)OCOC(C)=O)c1ccccc1OCCOc1ccccc1N(CC(=O)OCOC(C)=O)CC(=O)OCOC(C)=O [BAPTA/AM, reference compound]
anti-arthritic effect of celastrol with calcium chelator ([3]; celastrol 1 mg/kg + BAPTA/AM 3.5 mg/kg): retarded the anti-arthritic effect of celastrol | LC3-II conversion with co-treatment [7]: inhibited LC3-II conversion | celastrol-induced endogenous LC3-II puncta formation with co-treatment ([8]; 1 μM celastrol, 10 μM BAPTA/AM): dramatically suppressed | celastrol-mediated autophagic cell death with inhibitor [5]: completely abolished

c1cc(-c2cnn3cc(-c4ccc(OCCN5CCCCC5)cc4)cnc23)ccn1 [AMPK inhibitor]
celastrol-induced calcium dynamic change under co-/pre-treatment [6]: no inhibitory effect

COc1cc2c(c(OC)c1OC)-c1ccc(OC)c(=O)cc1[C@@H](NC(C)=O)CC2 [Colchicine, colchicine]
Resistant Factor [1]: 4.07 | IC50 at 72 h [2]: 46 µM | IC50 at 72 h [4]: 11.3 µM

CC1=C(O)C(=O)C=C2C1=CC=C1[C@@]2(C)CC[C@@]2(C)[C@@H]3C[C@](C)(C(=O)O)CC[C@]3(C)CC[C@]12C [Celastrol, celastrol]
autophagy induction, endogenous LC3-II puncta [9]: induced autophagy in time-dependent manner | IC50 [10, 18]: 0.722 µM | Resistant factor, RF ([10]; RAFLS p53 R213* vs p53 WT): RF: 0.72 | Resistant Factor [1]: 1.12 | IC50 at 72 h [2]: 1.45 µM | erythrocyte sedimentation rate (ESR) [3]: down-regulated | body weight or organ weight ([3]; 36 days): without impairment | arthritic scores [3, 19]: significantly reduced | hind paw volume [3, 19]: significantly reduced | microCT of hind joints: swollen joints and cartilage destruction [3]: markedly improved | IC50 [11, 18]: 0.996 µM | Resistant factor, RF ([11]; RAFLS Ctrl p53 WT (reference)): RF: 1 | Rho123 accumulation in P-gp overexpressing RAFLS [12]: gradually increased Rho123 accumulation in a dose-dependent manner | MTX-mediated cell death (sensitization) [13]: potentiating the toxicity of MTX | calcium dynamic change [6]: stimulated relative weak calcium dynamic | verapamil-activated P-gp activity [14]: directly suppresses the activated form of P-gp in dose-dependently manner | IC50 at 72 h [4]: 1.3 µM | IC50 [15, 18]: 1.01 µM | Resistant factor, RF ([15]; RAFLS p53 N239S vs p53 WT): RF: 1.01 | calcium mobilization (Fluo-3) [16]: time and dose-dependently disturbs calcium homeostasis | autophagy induction, endogenous LC3-II puncta ([8]; 0.25-2 μM): dose-dependent autophagy induction | cell death (cytotoxicity), annexin V ([5]; 0.25-2 μM): dose-dependent cytotoxicity

— patent US10688105B2, “Method of treating refractory rheumatoid arthritis associated with p53 mutation” (priority 2017, dated 2020)
